Where a name gives a salt, the structure may show the parent alone.
Test system: eNOS promoter
Assay: Activation of eNOS transcription (eNOS promoter firefly luciferase reporter gene assay)
Assay type: cell-based
Conditions: human endothelial cell line stably transfected with eNOS promoter-luciferase construct; 18 h incubation; determined graphically; read-out: EC50 values of transcription induction ratios (TIR)
Protocol: Activation of eNOS transcription was measured as described in detail by Li et al., “Activation of protein kinase C alpha and/or epsilon enhances transcription of the human endothelial nitric oxide synthase gene”, Mol. Pharmacol. 53 (1998) 630. Briefly, a 3.5 kB long fragment 5′ of the starting codon of the eNOS gene was cloned, sequenced and cloned in firefly luciferase expression plasmids to monitor activation of the eNOS promoter by reporter gene activity. A human endothelial cell line stable transfected and expressing this promoter-reporter construct was used for compound testing. Cells were incubated for 18 h with the compounds.
All compounds were dissolved in sterile dimethyl sulfoxide (DMSO). A final concentration of 0.5% DMSO in complete medium was allowed. Induction of reporter gene expression in these cells was measured using a standard luciferase assay system (Promega, Cat. No. E150) according to the manufacturer's instructions. Luciferase induction in cells incubated with compounds were compared to those incubated with solvent alone. The ratio of both activities (transcription induction ratio, TIR) was plotted as a function of compound concentration. […] EC50 values of transcription induction ratios as a function of compound concentration were determined graphically.

Row | EC50 | Structure (SMILES)
1 | < 0.5 µM | CN(C)C(=O)[C@@H]1C[C@H]1c1ccc(-c2ccccc2F)nc1 (relative stereo) [Example 49, trans-2-[6-(2-Fluoro-phenyl)-pyridin-3-yl]-cyclopropanecarboxylic acid dimethylamide trifluoroacetic acid salt]
2 | 0.5 to 5 µM | O=C([C@@H]1C[C@H]1c1ccc(-c2ccc(F)cc2)nc1)N1CCCC1 (relative stereo) [Example 46, {trans-2-[6-(4-fluoro-phenyl)-pyridin-3-yl]-cyclopropyl}-(pyrrolidin-1-yl)-methanone trifluoroacetic acid salt]

Source: US8299102B2, “Heteroarylcyclopropanecarboxamides and their use as pharmaceuticals” (Sanofi, priority 2006, dated 2012)
